# Results: patent publication US20240226048A1, “METHODS OF TREATMENT USING BEMPEDOIC ACID” (Esperion Therapeutics, Inc., priority 2023, published 2024)
# Test: CLEAR OUTCOMES trial: adverse events and safety laboratory findings
# Type: in vivo, human
# Settings: for Any muscle disorder, %: prespecified adverse event of special interest
# Excerpt: The CLEAR OUTCOMES trial was a randomized, placebo-controlled, double-blind trial that enrolled patients at 1250 sites in 32 countries. An independent Data Monitoring Committee reviewed safety and efficacy data during the trial. Patients 18 to 85 years of age were eligible for enrollment if they met either of two criteria for increased cardiovascular risk, a prior cardiovascular event (secondary prevention) or clinical features that placed them at high risk for a cardiovascular event (primary prevention). (Nicholls […], Bays H E, et al. Rationale and design of the CLEAR-outcomes trial: Evaluating the effect of bempedoic acid on cardiovascular events in patients with statin intolerance. Am Heart J. 2021 May; 235: 104-112) All patients provided written informed consent. Patients had to report statin intolerance due to an adverse effect that started or increased during statin therapy and resolved or improved after statin therapy was discontinued. Patients could be enrolled if they tolerated a very low average daily statin dose (e.g., an average daily dose of rosuvastatin <5 mg, atorvastatin <10 mg, simvastatin <10 mg, lovastatin <20 mg, pravastatin <40 mg, fluvastatin <40 mg, or pitavastatin <2 mg). Other lipid-lowering therapies were permitted, including ezetimibe, niacin, bile acid resins, fibrates, and/or proprotein convertase subtilisin kexin type 9 (PCSK9) inhibitors. Full inclusion and exclusion criteria are provided in Nicholls et al. (Am Heart J. 2021). Eligible patients entered a 4-week run-in period during which patients were treated with single-blind placebo. If patients were intolerant to placebo treatment or if adherence was <80% by tablet count, they were not eligible for randomization. […] Beginning 6 months after enrollment, the central laboratory notified the investigator if the patient's LDL-cholesterol level was ≥25% higher than baseline. These patients were counseled on healthy dietary guidelines and reminded to take all lipid-regulating medications. If repeat testing confirmed that LDL-cholesterol value met the threshold criteria, the provider could adjust the lipid-lowering treatment regimen per standard of care and local guidelines.
# [1] = N = 7001, listed as bempedoic acid
# [2] = at any visit, repeated and confirmed, N = 7001
smiles,measurement,setting,value
"CC(C)(CCCCCC(O)CCCCCC(C)(C)C(=O)O)C(=O)O [Bempedoic Acid, Bempedoic acid]","Adverse event leading to drug discontinuation, %","180 mg oral daily, N = 7001",(11.0) %
same,"Any treatment emergent adverse event, %","180 mg oral daily, N = 7001",(86.3) %
same,"Serious treatment emergent adverse event, %","180 mg oral daily, N = 7001",(25.4) %
same,"Adjudicated tendon rupture, %",N = 7001,(1.2) %
same,"Atrial fibrillation, %",N = 7001,(3.3) %
same,"Cholelithiasis, %",N = 7001,(2.2) %
same,"Discontinuation of treatment due to myalgia, %",N = 7001,(1.8) %
same,"Elevated hepatic enzymes, %",N = 7001,(4.5) %
same,"Gout, %",N = 7001,(3.1) %
same,"Hyperuricemia, %",N = 7001,(10.9) %
same,"Hypoglycemia, %",N = 7001,(4.3) %
same,"Malignancies, %",N = 7001,(4.7) %
same,"Metabolic acidosis, %",N = 7001,(0.2) %
same,"Myalgia, %",N = 7001,(5.6) %
same,"Neurocognitive disorders, %",N = 7001,(0.8) %
same,"Renal impairment, %",N = 7001,(11.5) %
same,"Tendinopathies, %",N = 7001,(1.7) %
same,"Cholelithiasis, %",[1],2.2%
same,"Elevated hepatic enzymes, %",[1],4.5%
same,"Gout, %",[1],3.1%
same,"Hyperuricemia, %",[1],10.9%
same,"Renal impairment, %",[1],11.5%
same,Change from baseline in creatinine levels,"after 6 months, mean",0.05 mg/dL
same,Change from baseline in uric acid levels,"after 6 months, mean",0.76 mg/dL
same,Change from baseline in glycated hemoglobin level (%),"after 12 months, not a prespecified safety measure",0.04%
same,"Creatine kinase levels >5x ULN (repeated and confirmed), %","at any visit, N = 7001",(0.1) %
same,"Creatine kinase levels >5x ULN (single occurrence), %","at any visit, N = 7001",(0.6) %
same,"Alanine aminotransferase level >3 times ULN, %",[2],(1.2) %
same,"Aspartate aminotransferase level >3 times ULN, %",[2],(1.1) %
same,tolerability of treatment,discontinuation rates similar to placebo,well tolerated
same,"Worsening hyperglycemia, %",in patients with diabetes at baseline,(22.7) %
same,Mean changes in creatinine and uric acid from baseline compared with placebo,in vivo,larger
same,"New onset diabetes in patients with normoglycemia at baseline, %",in vivo,(5.5) %
same,"New onset diabetes in patients with pre-diabetes at baseline, %",in vivo,(19.5) %
same,"New onset diabetes in patients without diabetes at baseline, %",in vivo,(16.1) %
same,Rates of liver transaminase elevations >3×ULN compared with placebo,in vivo,more frequent
same,"Any muscle disorder, %",N = 7001,(15.0) %
same,"Any muscle disorder, %",[1],15.0%
same,"between group differences in overall rates of adverse events, serious adverse events, or adverse events leading to drug discontinuation",vs placebo,not clinically meaningful between group differences
same,"other prespecified adverse events of special interest (diabetes, hypoglycemia, metabolic acidosis, neurocognitive disorders, atrial fibrillation, tendinopathies, malignancies)",vs placebo,no differences
